Laboratory results taken from US8597632B2, “Anionic oligosaccharide conjugates” (Glycan Biosciences LLC, priority 2008, dated 2013).
Marks after values point to notes of the source that are not given here.

Columns and labels:
Type in all cases: in vivo
[1] = system: guinea pig model of asthma; assay: Guinea pig model of asthma (OVA)
Guinea-pig anaphylaxis = Guinea-pig anaphylaxis model (OVA); conditions: for % of the animals died (anaphylaxis): 5 mg/kg intranasal 30 min prior to OVA
Description: Guinea-pig anaphylaxis has for many years been considered the classical example of anaphylaxis, in contrast to other species (e.g. mice) that completely lack anaphylactic responses after allergen inhalation. Anaphylactic shock is believed to be due to liberation of histamine with subsequent contraction of smooth muscle after the inhalation of antigen into the airway and lungs. Contraction of the bronchial musculature completely shuts off the alveoli and prevents exhalation of air, and the animals die of asphyxia. In guinea-pigs allergen doses that are high enough to produce a significant late-phase responses (i.e. cellular eosinophilia, late phase exudation) inevitably also give rise to prior strong acute reactions that are so intense that some animals may die in acute airway constriction.
In this model the guinea pigs were sensitized to ovalbumin (OVA) twice (on days 0 and 7) by an intraperitoneal injection of 0.5 mL saline containing 100 mg Al(OH)3 and 2 μg OVA. Three weeks after the last sensitization, animals were anaesthetized and the exposure of the nasal cavity to allergen was performed by dropping OVA solution at 2 mg/mL into bilateral nasal cavities (20 μl per nasal cavity). For the negative control the animals received sensitization and challenge with saline. The animals are pretreated with either vehicle or drug (anionic oligosaccharide conjugates or Budesonide) 30 min prior to intranasal instillation of OVA. Vehicle or drugs are administered, 25 μl-50 μl/nostril. A comparison of the anionic oligosaccharide conjugates with Budesonide, as the reference compound, is included. In this study Budesonide at 0.65 mg/kg was not effective at preventing anaphylaxis as 70% of the animals in this group died by acute airway constriction.

[2] = system: allergic rhinitis model in the guinea pig; assay: Allergic rhinitis model in the guinea pig (OVA); conditions: for % inhibition of protein content of the nasal lavage fluid (plasma exudation): 5 mg/kg intranasal 30 min before OVA, 8 hours after challenge; for eosinophil and neutrophil infiltration into nasal lavage fluid: 5 mg/kg, 8 hours after challenge (FIG. 3)
mouse model of emphysema = assay: Mouse model of emphysema / COPD (cigarette smoke)
Method: A mouse model of emphysema was used. Acute or chronic exposure of mice to cigarette smoke lead to lung responses that in part mimic the inflammatory and structural changes observed in COPD. In this model male C57Bl/6J mice are subjected to acute or chronic smoke exposure, with normal room air being the control situation. In the acute study mice were exposed to either room air or to the smoke of five cigarettes (approximately 12 mg of tar and 0.9 mg of nicotine) for 20 minutes. In the chronic study mice were exposed to either room air or to the smoke of three cigarettes/day for 5 days/week for 6 months. The 4 groups of mice were then further divided so that mice within each group also received various anionic oligosaccharide conjugates via an inhaled route.
In the acute exposure groups of mice anionic oligosaccharide conjugates were given 30 minutes before exposure to cigarette smoke. Assessment of the efficacy of the drug for mice in the acute exposure groups involved assessment of trolox equivalent anti-oxidant capacity of the bronchoalveolar lavage fluid (BALF) at the end of smoke exposure. The BALF was examined for cytokines and chemokines that are associated with an inflammatory response. The levels of these agents were determined at 4 hours after exposure and at 24 hours after cigarette smoke exposure. A range of cytokines and chemokines was measured. These included: IL-1α, IL-1β, IL-2, IL-3, IL-4, IL-5, IL-6, IL-10, IL-12, RANTES, MIP-1α, cytokine-induced neutrophil chemoattractant (KC), TNF-α and IFN-γ). A differential cell count of the cells in the BALF was also determined.
The animals in the chronic study received the anionic oligosaccharide conjugates (including ID 9) once a day for the duration of the experiment. At the completion of the experiment animals were killed and the lungs fixed intratracheally with formalin (5%) and lung volume was measured by water displacement. […] The level of desmosine in the lung tissue was also determined. […]

[3] = system: rat model of acute lung injury and ADRS; assay: Rat model of acute lung injury and ARDS (LPS); conditions: intra-tracheal 0.5 and 2.5 mg/kg, 30 minutes before LPS
Description: A rat model of acute lung injury and ADRS was used (Jansson, Lung 182:1-9, 2004). The model is based on the understanding that endotoxin found in common pathogens (e.g. bacteria) can lead to the development of ARDS, septic shock and multiple organ dysfunction syndrome in the clinical situation. Lipopolysaccharide (LPS), a component of the outer membrane of gram-negative bacteria is the prototypical example of endotoxin and exposure of the respiratory tract of rats to LPS can be used as a model of acute lung inflammation and ARDS. […]
Excised lung gas volume (ELGV) is measured by Archimedes' principle and is based on the stable amount of air trapped within the excised lungs at a transpulmonary pressure of 0 cmH2O. […] A density determination kit (P3000, Mettler-Toledo GmbH, Sweden) and optional density determination software for the balance were used on the basis of the principle that every solid body immersed in fluid loses weight, and is expressed as g/cm^3. […] ELGV is determined by the difference between bracket weight and lung buoyancy in the liquid. […] Indication of lung tissue edema was calculated by the difference between lung tissue weight outside the beaker and bracket weight. The lung tissue density was determined by the ratio of the lung weight (difference between lung tissue weight outside the beaker and holder weight) and the air volume within the lung (ELGV). […]

[4] = 0.1 mg/kg pretreatment (FIG. 5)
[5] = drug 0.1 mg/kg intra-tracheal, MCh (10 mg/mL)
[6] = drug 0.1 mg/kg intra-tracheal, MCh (30 mg/mL)
[7] = drug 2.5 mg/kg intra-tracheal, MCh (10 mg/mL)
[8] = drug 2.5 mg/kg intra-tracheal, MCh (30 mg/mL)

| Molecule | inhibition of OVA induced leukocyte influx in BAL [1, 4] | AHR: Cdyn, % increase from that of the positive control [1, 5] | AHR: RL, % inhibition from that of the positive control [1, 5] | AHR: Cdyn, % increase from that of the positive control [1, 6] | AHR: RL, % inhibition from that of the positive control [1, 6] | AHR: Cdyn, % increase from that of the positive control [1, 7] | AHR: RL, % inhibition from that of the positive control [1, 7] | AHR: Cdyn, % increase from that of the positive control [1, 8] | AHR: RL, % inhibition from that of the positive control [1, 8] | % of the animals died by acute airway constriction (Guinea-pig anaphylaxis; 0.65 mg/kg intranasal 30 min prior to OVA) | % of the animals died (anaphylaxis) (Guinea-pig anaphylaxis) | % inhibition of protein content of the nasal lavage fluid (plasma exudation) [2] | eosinophil and neutrophil infiltration into nasal lavage fluid [2] | numbers of neutrophils in BALF (mouse model of emphysema; acute cigarette smoke exposure) | cellular infiltrate into BALF (mouse model of emphysema; acute cigarette smoke exposure, inhaled 30 minutes before exposure) | anti-inflammatory activity in COPD model (mouse model of emphysema; chronic smoke exposure, once a day) | inhibition of OVA induced leukocyte influx in BAL ([1]; 2.5 mg/kg pretreatment (FIG. 5)) | antigen induced elevated protein content of BAL ([1]; even at 0.1 mg/kg (FIG. 4)) | lung function: development of Cdyn and RL ([1]; methacholine evoked bronchoconstriction, 8 hours after provocation) | inhibition of neutrophil infiltration (BAL) [3] |
| --- | --- | --- | --- | --- | --- | --- | --- | --- | --- | --- | --- | --- | --- | --- | --- | --- | --- | --- | --- | --- |
| CCCC1O[C@@H]2C[C@H]3[C@@H]4CCC5=CC(=O)C=C[C@]5(C)[C@H]4[C@@H](O)C[C@]3(C)[C@]2(C(=O)CO)O1 (some centres unmarked) [Budesonide, reference compound] | 76% | 97.2%** | 86.5%** | 116.2%** | 105%** | 19.7% | −89.4% | 70.9%** | 98.9%** | 70% | – | – | – | – | – | – | – | – | – | – |
| (Maltopentaose)-(Et2)-(Maltopentaose) [ID 7] | – | – | – | – | – | – | – | – | – | – | 27% | 91.4% | only blocked eosinophils | – | – | – | – | – | – | – |
| (Maltopentaose)-Et4-(Maltopentaose) [ID 9] | 62% | 76.6%** | 75.3%* | 90%** | 84.4%** | 68.7%* | 80.5%** | 128.4%** | 99.5%** | – | 35% | 51.5% | particularly effective at blocking not only eosinophil infiltration but also neutrophil infiltration | significantly attenuated | decreased the cellular infiltrate into BALF | could act as anti-inflammatory agents | 85% | very effectively inhibits the elevated protein content of BAL | inhibited the development of both Cdyn and RL | marked |
